Laboratory results from the NIST ThermoML archive (doi:10.1016/j.fluid.2014.11.024).
Numbers after ± are expanded uncertainties.

Conditions: 101.33 kPa, Liquid; for viscosity: Falling or rolling sphere viscometry; for speed of sound: Sing-around technique in a fixed-path interferometer; for mass density: Vibrating tube method

Compound	viscosity (293.15 K)	speed of sound (293.15 K)	mass density (293.15 K)	viscosity (298.15 K)	speed of sound (298.15 K)	mass density (298.15 K)	viscosity (303.15 K)	speed of sound (303.15 K)	mass density (303.15 K)	viscosity (308.15 K)	speed of sound (308.15 K)	mass density (308.15 K)	viscosity (313.15 K)	speed of sound (313.15 K)	mass density (313.15 K)	viscosity (318.15 K)	speed of sound (318.15 K)	mass density (318.15 K)	viscosity (323.15 K)	speed of sound (323.15 K)	also measured
CC(=O)[O-].C[NH+]1CCCC1=O [N-methyl-2-oxopyrrolidinium acetate]	2.933 ± 0.037 mPa·s	1491.5 ± 2.3 m/s	1050.71 ± 0.94 kg/m3	2.622 ± 0.034 mPa·s	1473.5 ± 2.3 m/s	1046.06 ± 0.93 kg/m3	2.364 ± 0.031 mPa·s	1455.1 ± 2.3 m/s	1041.42 ± 0.92 kg/m3	2.144 ± 0.028 mPa·s	1436.9 ± 2.3 m/s	1036.77 ± 0.91 kg/m3	1.959 ± 0.026 mPa·s	1418.7 ± 2.3 m/s	1032.12 ± 0.9 kg/m3	1.799 ± 0.024 mPa·s	1400.6 ± 2.3 m/s	1027.46 ± 0.89 kg/m3	1.66 ± 0.023 mPa·s	1382.6 ± 2.3 m/s	mass density (323.15 K): 1022.79 ± 0.88 kg/m3; viscosity (328.15 K): 1.54 ± 0.021 mPa·s; speed of sound (328.15 K): 1364.7 ± 2.3 m/s; mass density (328.15 K): 1018.12 ± 0.87 kg/m3; viscosity (333.15 K): 1.435 ± 0.02 mPa·s; speed of sound (333.15 K): 1346.9 ± 2.3 m/s; mass density (333.15 K): 1013.44 ± 0.86 kg/m3; viscosity (338.15 K): 1.344 ± 0.019 mPa·s; speed of sound (338.15 K): 1329.2 ± 2.3 m/s; mass density (338.15 K): 1008.75 ± 0.86 kg/m3; viscosity (343.15 K): 1.264 ± 0.018 mPa·s; speed of sound (343.15 K): 1311.5 ± 2.3 m/s; mass density (343.15 K): 1004.05 ± 0.85 kg/m3
CCCC(=O)[O-].C[NH+]1CCCC1=O [N-methyl-2-oxopyrrolidinium butanoate]	3.996 ± 0.051 mPa·s	1435.6 ± 2.3 m/s	1010.56 ± 0.86 kg/m3	3.526 ± 0.045 mPa·s	1418 ± 2.3 m/s	1006.11 ± 0.85 kg/m3	3.136 ± 0.04 mPa·s	1400.1 ± 2.3 m/s	1001.65 ± 0.84 kg/m3	2.809 ± 0.036 mPa·s	1382.2 ± 2.3 m/s	997.18 ± 0.83 kg/m3	2.531 ± 0.033 mPa·s	1364.4 ± 2.3 m/s	992.71 ± 0.83 kg/m3	2.295 ± 0.03 mPa·s	1346.7 ± 2.3 m/s	988.24 ± 0.82 kg/m3	2.093 ± 0.028 mPa·s	1328.5 ± 2.3 m/s	mass density (323.15 K): 983.74 ± 0.82 kg/m3; viscosity (328.15 K): 1.918 ± 0.026 mPa·s; speed of sound (328.15 K): 1311 ± 2.3 m/s; mass density (328.15 K): 979.25 ± 0.81 kg/m3; viscosity (333.15 K): 1.771 ± 0.024 mPa·s; speed of sound (333.15 K): 1293.5 ± 2.3 m/s; mass density (333.15 K): 974.76 ± 0.81 kg/m3; viscosity (338.15 K): 1.639 ± 0.022 mPa·s; speed of sound (338.15 K): 1276.3 ± 2.3 m/s; mass density (338.15 K): 970.26 ± 0.8 kg/m3; viscosity (343.15 K): 1.527 ± 0.021 mPa·s; speed of sound (343.15 K): 1259.1 ± 2.3 m/s; mass density (343.15 K): 965.75 ± 0.8 kg/m3
C[NH+]1CCCC1=O.O=C[O-] [N-methyl-2-oxopyrrolidinium formate]	2.451 ± 0.032 mPa·s	1496 ± 2.3 m/s	1076.38 ± 1 kg/m3	2.217 ± 0.029 mPa·s	1478.3 ± 2.3 m/s	1071.66 ± 0.99 kg/m3	2.02 ± 0.027 mPa·s	1460.4 ± 2.3 m/s	1066.93 ± 0.98 kg/m3	1.85 ± 0.025 mPa·s	1442.5 ± 2.3 m/s	1062.2 ± 0.97 kg/m3	1.705 ± 0.023 mPa·s	1424.8 ± 2.3 m/s	1057.45 ± 0.96 kg/m3	1.58 ± 0.022 mPa·s	1407.2 ± 2.3 m/s	1052.71 ± 0.95 kg/m3	1.472 ± 0.021 mPa·s	1389.7 ± 2.3 m/s	mass density (323.15 K): 1047.96 ± 0.94 kg/m3; viscosity (328.15 K): 1.377 ± 0.02 mPa·s; speed of sound (328.15 K): 1372.2 ± 2.3 m/s; mass density (328.15 K): 1043.2 ± 0.93 kg/m3; viscosity (333.15 K): 1.295 ± 0.019 mPa·s; speed of sound (333.15 K): 1354.8 ± 2.3 m/s; mass density (333.15 K): 1038.43 ± 0.92 kg/m3; viscosity (338.15 K): 1.223 ± 0.018 mPa·s; speed of sound (338.15 K): 1337.6 ± 2.3 m/s; mass density (338.15 K): 1033.66 ± 0.91 kg/m3; viscosity (343.15 K): 1.159 ± 0.017 mPa·s; speed of sound (343.15 K): 1320.5 ± 2.3 m/s; mass density (343.15 K): 1028.88 ± 0.9 kg/m3
CCCCCC(=O)[O-].C[NH+]1CCCC1=O [N-methyl-2-oxopyrrolidinium hexanoate]	5.211 ± 0.066 mPa·s	1431.4 ± 2.3 m/s	983.01 ± 0.82 kg/m3	4.549 ± 0.058 mPa·s	1414.2 ± 2.3 m/s	978.81 ± 0.81 kg/m3	3.998 ± 0.051 mPa·s	1396.7 ± 2.3 m/s	974.6 ± 0.81 kg/m3	3.543 ± 0.045 mPa·s	1379.3 ± 2.3 m/s	970.39 ± 0.8 kg/m3	3.163 ± 0.04 mPa·s	1362 ± 2.3 m/s	966.18 ± 0.8 kg/m3	2.843 ± 0.036 mPa·s	1344.8 ± 2.3 m/s	961.96 ± 0.79 kg/m3	2.57 ± 0.033 mPa·s	1327.6 ± 2.3 m/s	mass density (323.15 K): 957.74 ± 0.79 kg/m3; viscosity (328.15 K): 2.336 ± 0.03 mPa·s; speed of sound (328.15 K): 1310.6 ± 2.3 m/s; mass density (328.15 K): 953.51 ± 0.78 kg/m3; viscosity (333.15 K): 2.135 ± 0.028 mPa·s; speed of sound (333.15 K): 1293.7 ± 2.3 m/s; mass density (333.15 K): 949.28 ± 0.78 kg/m3; viscosity (338.15 K): 1.96 ± 0.026 mPa·s; speed of sound (338.15 K): 1276.8 ± 2.3 m/s; mass density (338.15 K): 945.04 ± 0.77 kg/m3; viscosity (343.15 K): 1.808 ± 0.024 mPa·s; speed of sound (343.15 K): 1260.2 ± 2.3 m/s; mass density (343.15 K): 940.79 ± 0.77 kg/m3
CCCCC(=O)[O-].C[NH+]1CCCC1=O [N-methyl-2-oxopyrrolidinium pentanoate]	4.448 ± 0.056 mPa·s	1427.7 ± 2.3 m/s	994.31 ± 0.83 kg/m3	3.91 ± 0.05 mPa·s	1410.5 ± 2.3 m/s	990.01 ± 0.83 kg/m3	3.465 ± 0.044 mPa·s	1393 ± 2.3 m/s	985.7 ± 0.82 kg/m3	3.093 ± 0.039 mPa·s	1375.4 ± 2.3 m/s	981.38 ± 0.82 kg/m3	2.779 ± 0.036 mPa·s	1358 ± 2.3 m/s	977.06 ± 0.81 kg/m3	2.513 ± 0.032 mPa·s	1340.7 ± 2.3 m/s	972.73 ± 0.81 kg/m3	2.284 ± 0.03 mPa·s	1323 ± 2.3 m/s	mass density (323.15 K): 968.39 ± 0.8 kg/m3; viscosity (328.15 K): 2.087 ± 0.028 mPa·s; speed of sound (328.15 K): 1305.7 ± 2.3 m/s; mass density (328.15 K): 964.05 ± 0.8 kg/m3; viscosity (333.15 K): 1.917 ± 0.026 mPa·s; speed of sound (333.15 K): 1288.7 ± 2.3 m/s; mass density (333.15 K): 959.71 ± 0.79 kg/m3; viscosity (338.15 K): 1.769 ± 0.024 mPa·s; speed of sound (338.15 K): 1271.8 ± 2.3 m/s; mass density (338.15 K): 955.36 ± 0.79 kg/m3; viscosity (343.15 K): 1.64 ± 0.022 mPa·s; speed of sound (343.15 K): 1255 ± 2.3 m/s; mass density (343.15 K): 951.01 ± 0.78 kg/m3
CCC(=O)[O-].C[NH+]1CCCC1=O [N-methyl-2-oxopyrrolidinium propionate]	3.136 ± 0.04 mPa·s	1460.3 ± 2.3 m/s	1032.46 ± 0.9 kg/m3	2.801 ± 0.036 mPa·s	1442.6 ± 2.3 m/s	1027.86 ± 0.89 kg/m3	2.518 ± 0.032 mPa·s	1424.5 ± 2.3 m/s	1023.32 ± 0.89 kg/m3	2.28 ± 0.03 mPa·s	1406.4 ± 2.3 m/s	1018.74 ± 0.88 kg/m3	2.075 ± 0.027 mPa·s	1388.4 ± 2.3 m/s	1014.16 ± 0.87 kg/m3	1.9 ± 0.025 mPa·s	1370.6 ± 2.3 m/s	1009.56 ± 0.86 kg/m3	1.75 ± 0.024 mPa·s	1352.8 ± 2.3 m/s	mass density (323.15 K): 1004.97 ± 0.85 kg/m3; viscosity (328.15 K): 1.619 ± 0.022 mPa·s; speed of sound (328.15 K): 1335.1 ± 2.3 m/s; mass density (328.15 K): 1000.36 ± 0.84 kg/m3; viscosity (333.15 K): 1.506 ± 0.021 mPa·s; speed of sound (333.15 K): 1317.5 ± 2.3 m/s; mass density (333.15 K): 995.75 ± 0.83 kg/m3; viscosity (338.15 K): 1.407 ± 0.02 mPa·s; speed of sound (338.15 K): 1300 ± 2.3 m/s; mass density (338.15 K): 991.12 ± 0.83 kg/m3; viscosity (343.15 K): 1.32 ± 0.019 mPa·s; speed of sound (343.15 K): 1282.6 ± 2.3 m/s; mass density (343.15 K): 986.49 ± 0.82 kg/m3
